Earlier results on five compounds are cited in US20050090660A1, “2'-deoxy-L-nucleosides” (priority 1999, published 2005).

pIC50: −log10 of the molar value. A value given as a limit tells only on which side of the number the result lay.

For series [1], the system named is hepatoma cell lines.
Series [2] concerns the target T1, polymerase γ (Homo sapiens, UniProt P54098).
T1 sequence (P54098 1-1239): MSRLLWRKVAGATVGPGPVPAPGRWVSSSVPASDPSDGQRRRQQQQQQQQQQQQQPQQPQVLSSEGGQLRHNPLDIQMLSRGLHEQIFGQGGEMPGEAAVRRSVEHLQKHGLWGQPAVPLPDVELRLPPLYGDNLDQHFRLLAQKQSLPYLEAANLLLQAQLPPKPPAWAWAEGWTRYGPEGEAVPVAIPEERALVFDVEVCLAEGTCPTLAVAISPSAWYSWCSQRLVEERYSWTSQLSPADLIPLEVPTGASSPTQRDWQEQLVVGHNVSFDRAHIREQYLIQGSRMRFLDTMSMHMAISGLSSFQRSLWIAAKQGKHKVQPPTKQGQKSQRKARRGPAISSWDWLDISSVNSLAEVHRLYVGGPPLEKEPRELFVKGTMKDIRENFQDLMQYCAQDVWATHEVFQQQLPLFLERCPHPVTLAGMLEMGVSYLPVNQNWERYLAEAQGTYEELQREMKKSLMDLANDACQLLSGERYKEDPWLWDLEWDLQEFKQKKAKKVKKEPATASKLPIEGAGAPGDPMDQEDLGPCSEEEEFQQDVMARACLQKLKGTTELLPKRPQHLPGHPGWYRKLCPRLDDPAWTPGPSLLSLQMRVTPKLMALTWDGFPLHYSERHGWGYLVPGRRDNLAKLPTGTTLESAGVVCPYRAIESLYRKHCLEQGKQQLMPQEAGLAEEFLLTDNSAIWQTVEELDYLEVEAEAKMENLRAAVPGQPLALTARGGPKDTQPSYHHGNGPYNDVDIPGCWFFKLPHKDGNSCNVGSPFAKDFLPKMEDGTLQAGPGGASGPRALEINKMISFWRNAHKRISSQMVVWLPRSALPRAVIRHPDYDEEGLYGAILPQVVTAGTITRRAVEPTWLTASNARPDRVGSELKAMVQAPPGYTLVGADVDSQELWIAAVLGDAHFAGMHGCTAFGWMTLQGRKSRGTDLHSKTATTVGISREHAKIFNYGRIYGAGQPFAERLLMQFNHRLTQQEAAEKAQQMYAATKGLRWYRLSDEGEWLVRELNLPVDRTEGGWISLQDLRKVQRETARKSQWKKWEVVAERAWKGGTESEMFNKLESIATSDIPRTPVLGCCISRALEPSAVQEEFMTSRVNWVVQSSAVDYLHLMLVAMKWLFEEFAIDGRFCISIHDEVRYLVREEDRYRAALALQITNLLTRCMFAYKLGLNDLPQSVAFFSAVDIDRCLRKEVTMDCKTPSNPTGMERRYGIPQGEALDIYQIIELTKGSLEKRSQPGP
The conditions noted are these: polymerase responsible for mitochondrial DNA chain elongation.

For series [3], the system named is HIV. The conditions noted are these: specificity versus HBV.
The test system of series [4] is mitochondrial DNA synthesis and lactic acid production.
The test system of series [5] is uninfected HepG2 cells.
The test system of series [6] is HBV. Particulars: HBV patients, two and four week courses.

Regarding `Cc1cn([C@H]2O[C@@H](CO)[C@H](O)[C@H]2F)c(=O)[nH]c1=O` [L-FMAU], in series [1], the lactic acid production entry is “no significant”.

Usually pIC50 stands for −log10 of the IC50, conventionally taken in molar units. Regarding `Nc1ccn([C@@H]2C[C@@H](O)[C@H](CO)O2)c(=O)n1` [L-dCyd, 2′-deoxy-β-L-cytidine], the “substrate activity for polymerase γ” value in series [2] is recorded as “little, if any”. Also, the “activity against HIV” value in series [3] is “not HIV”. In series [4], the “effect on lactic acid production” value is on record as “no effect” and the “effect on mitochondrial DNA synthesis” value is recorded as “no effect”. The pIC50 in series [5] was less than 3.70.

`O=c1[nH]c(=O)n([C@@H]2O[C@H](CO)[C@@H](O)[C@@H]2F)cc1I` [FIAU]: the “patients who died from hepatic failure” value (of the 7 patients with delayed hepatotoxicity, trial with 15 patients) is given as 5. For the same compound, the “patients with delayed hepatotoxicity” value (prolonged treatment trial with 15 patients) was 7 patients. Further, in series [6], the “suppression of serum HBV DNA levels” value is not above 95%.

Take `Cc1cn([C@@H]2C[C@@H](O)[C@H](CO)O2)c(=O)[nH]c1=O` [L-dThd, 2′-Deoxy-β-L-thymidine]: in series [2], the “substrate activity for polymerase γ” value is “little, if any”. Besides, in series [3], the “activity against HIV” value is reported as “not HIV”. In series [4], the “effect on lactic acid production” value was “no effect” and the “effect on mitochondrial DNA synthesis” value is given as “no effect”. Further, the pIC50 in series [5] is less than 3.70.

Turning to `Nc1ncnc2c1ncn2[C@@H]1C[C@@H](O)[C@H](CO)O1` [L-dAdo, 2′-deoxy-β-L-adenosine], the “substrate activity for polymerase γ” value in series [2] is given as “little, if any”. Further, the “activity against HIV” value in series [3] is given as “not HIV”. For the same compound, in series [4], the “effect on lactic acid production” value is reported as “no effect” and the “effect on mitochondrial DNA synthesis” value was “no effect”. The “morphological changes in HepG2 cells” value in series [5] (treated at up to 100 μM) is “no morphological changes”.
